Tested on: not listed separately
Assay: Measurement test of plasma drug concentration after oral administration in rats
Format: in vivo, rat
Conditions: 10 mg/2 mL/kg oral, suspended in 0.5% methylcellulose, male SD rats
Description: 10 mg/2 mL/kg of the test compound suspended in 0.5% methylcellulose solution were force-fed to Male SD rats (7 weeks old, Japan SLC). Blood was collected from the jugular vein using a syringe with heparin at 0.5, 1, 2, 4, 6, and 24 hr after administration. After blood collection, to 20 μL of centrifuged plasma was added an equal volume of acetonitrile followed by 200 μL of internal standard (IS) solution. After agitation, all the supernatant after centrifugation was filtered, and the collected filtrate was used as the assay sample. Equal volumes of the test compound solution prepared in acetonitrile were added to blank plasma, and the samples processed in the same manner as above were used as samples for the calibration curve. The prepared samples were measured using LC/MS/MS, and the area under the blood concentration-time curve (AUC) was calculated from the compound concentration in plasma.

Question: With `CC[C@@H]1CN(Cc2cc([C@H](CC(=O)O)c3ccc4c(nnn4C)c3C)cc3c2CCC3)S(=O)(=O)c2cc(Cl)cnc2O1` [Example 4, (3S)-3-(7-{[(4R)-8-Chloro-4-ethyl-1,1-dioxido-3,4-dihydro-2H-pyrido[2,3-b][1,4,5]oxathiazepin-2-yl]methyl}-2,3-dihydro-1H-inden-5-yl)-3-(1,4-dimethyl-1H-benzotriazol-5-yl)propanoic acid] as the compound, how does the maximam plasma concentration read?
Answer: The maximam plasma concentration was 0.029 µM.

Question: Which maximam plasma concentration does the source give for `CC[C@@H]1CN(Cc2cc([C@@H](CC(=O)O)c3ccc4c(nnn4C)c3C)cc3c2CCC3)S(=O)(=O)c2cc(Cl)cnc2O1` [Example 5, (3R)-3-(7-{[(4R)-8-Chloro-4-ethyl-1,1-dioxido-3,4-dihydro-2H-pyrido[2,3-b][1,4,5]oxathiazepin-2-yl]methyl}-2,3-dihydro-1H-inden-5-yl)-3-(1,4-dimethyl-1H-benzotriazol-5-yl)propanoic acid] here?
Answer: The maximam plasma concentration was 0.006 µM.

Question: For `CC[C@@H]1CN(Cc2cc([C@H](CC(=O)O)c3ccc4c(nnn4C)c3C)cc3ccsc23)S(=O)(=O)c2cc(Cl)cnc2O1` [Example 7, (3S)-3-(7-{[(4R)-8-Chloro-4-ethyl-1,1-dioxido-3,4-dihydro-2H-pyrido[2,3-b][1,4,5]oxathiazepin-2-yl]methyl}-1-benzothiophen-5-yl)-3-(1,4-dimethyl-1H-benzotriazol-5-yl)propanoic acid], which maximam plasma concentration is on record?
Answer: The maximam plasma concentration was 0.009 µM.

Question: Which maximam plasma concentration does the source give for `CC[C@@H]1CN(Cc2cc([C@@H](CC(=O)O)c3ccc4c(nnn4C)c3C)cc3ccsc23)S(=O)(=O)c2cc(Cl)cnc2O1` [Example 8, (3R)-3-(7-{[(4R)-8-Chloro-4-ethyl-1,1-dioxido-3,4-dihydro-2H-pyrido[2,3-b][1,4,5]oxathiazepin-2-yl]methyl}-1-benzothiophen-5-yl)-3-(1,4-dimethyl-1H-benzotriazol-5-yl)propanoic acid] here?
Answer: Its maximam plasma concentration is 0.005 µM.

Tested on: NQO1 activity in Hepa1c1c7 cells
Assay: NAD(P)H: quinone oxidoreductase-1 (NQO1) enzyme induction assay (in vitro)
Format: cell-based, mouse
Conditions: 400 nM of test compound, about 48 hr, ratio from the base without the compound
Description: The NQO1 assay was performed based on a previous report (Methods in Enzymology 2004; 382: 243-258). Hepa1c1c7 cells (mouse hepatocyte cell line, ATCC, cat. no. CRL-2026) were cultured in D-MEM medium containing 10% FBS and 1% penicillin/streptomycin (5% CO2, 37° C.), and seeded into 96-well plates (Corning REF. 353072) at 1×10^4 cells/well. A portion of the wells were prepared with medium only for background measurement without seeding cells. The next day, 400 nM of the test compound (0.004% of the final concentration in DMSO) dissolved in DMSO was added thereto, and the wells were incubated for about 48 hr. A well without adding the test compound was prepared for base activity assay in part.
Cell lysate (solution containing 0.8% digitonin, 2 mM EDTA), reaction solution (solution containing 25 mM Tris-HCl, 0.07% albumin, 0.01% Tween-20, 2 U/mL glucose-6-phosphate dehydrogenase, 5 μM flavin adenine dinucleotide, 1 μM glucose-6-phosphate, […] nicotinamide adenine dinucleotide phosphate, 0.03% 3-(4,5-dimethyl-2-thiazolyl)-2,5-diphenyltetrazolium bromide (MTT), and 50 μM menadione), stop solution (solution containing 0.3 mM dicoumarol and 5 mM potassium dihydrogen phosphate, pH 7.4) were prepared. After the medium was removed, 50 μL of the cell lysate was added and incubated at 37° C. for 10 minutes, followed by shaking at room temperature for 10 minutes. 200 μL of reaction solution was added thereto, and allowed to stand for 5 minutes at room temperature. 50 μL of the stop solution was added thereto, and absorbance was measured at 610 nm on a SpectraMax PLUS384 (Molecular devices) or POWERSCAN HT (DS Pharma Biomedical). The test results were analyzed in Excel, and the NQO1 activity upon addition of 400 nM of test compound was calculated as a ratio from the base without the compound.
The results of each test compound in this test are shown in the following Table 2 (A:5<NQO1 activity ratio, B:3<NQO1 activity ratio≤5).

Question: Which “activity ratio (NQO1 activity ratio)” value does the source give for `CC[C@@H]1CN(Cc2cc([C@@H](CC(=O)O)c3ccc4c(nnn4C)c3C)cc3ccsc23)C(C)c2nc(O)ccc2O1` (single isomer, unassigned) [Example 78, (3R)-3-(1,4-Dimethyl-1H-benzotriazol-5-yl)-3-(7-{[(2R,5S*)-2-ethyl-7-hydroxy-5-methyl-2,3-dihydropyrido[2,3-f][1,4]oxazepin-4(5H)-yl]methyl}-1-benzothiophen-5-yl)propanoic acid] here?
Answer: Its value is “A (5<NQO1 activity ratio)”.

Question: With `Cc1c([C@H](CC(=O)O)c2cc(CN3C[C@@H](C4CC4)Oc4ccc(O)nc4C3C)c3sccc3c2)cnc2c1nnn2C` (single isomer, unassigned) [Example 85, (3R)-3-(7-{[(2R,5R*)-2-Cyclopropyl-7-hydroxy-5-methyl-2,3-dihydropyrido[2,3-f][1,4]oxazepin-4(5H)-yl]methyl}-1-benzothiophen-5-yl)-3-(3,7-dimethyl-3H-[1,2,3]triazolo[4,5-b]pyridin-6-yl)propanoic acid] as the compound, how does the “activity ratio (NQO1 activity ratio)” value read?
Answer: The value was “A (5<NQO1 activity ratio)”.

Question: For `CC[C@@H]1CN(Cc2cc([C@@H](CC(=O)O)c3ccc4c(nnn4C)c3C)cc3c2CCC3)S(=O)(=O)c2cccc(Cl)c2O1` [Example 48, (3R)-3-(7-{[(4R)-6-Chloro-4-ethyl-1,1-dioxido-3,4-dihydro-2H-5,1,2-benzoxathiazepin-2-yl]methyl}-2,3-dihydro-1H-inden-5-yl)-3-(1,4-dimethyl-1H-benzotriazol-5-yl)propanoic acid], which “activity ratio (NQO1 activity ratio)” value is on record?
Answer: The value was “A (5<NQO1 activity ratio)”.

Question: With `CC[C@@H]1CN(Cc2cc([C@H](CC(=O)O)c3ccc4c(nnn4C)c3C)cc3ccsc23)[C@@H](C)c2ncccc2O1` [Example 62, (3S)-3-(1,4-Dimethyl-1H-benzotriazol-5-yl)-3-(7-{[(2R,5S)-2-ethyl-5-methyl-2,3-dihydropyrido[2,3-f][1,4]oxazepin-4(5H)-yl]methyl}-1-benzothiophen-5-yl)propanoic acid] as the compound, how does the “activity ratio (NQO1 activity ratio)” value read?
Answer: Its value is “A (5<NQO1 activity ratio)”.

Question: Which “activity ratio (NQO1 activity ratio)” value does the source give for `CC[C@@H]1CN(Cc2cc([C@H](CC(=O)O)c3cc(Cl)c4c(nnn4C)c3C)cc3c2CCC3)S(=O)(=O)c2cc(Cl)cnc2O1` [Example 96, (3S)-3-(7-Chloro-1,4-dimethyl-1H-benzotriazol-5-yl)-3-(7-{[(4R)-8-chloro-4-ethyl-1,1-dioxido-3,4-dihydro-2H-pyrido[2,3-b][1,4,5]oxathiazepin-2-yl]methyl}-2,3-dihydro-1H-inden-5-yl)propanoic acid] here?
Answer: Its value is “A (5<NQO1 activity ratio)”.

Question: Which “activity ratio (NQO1 activity ratio)” value does the source give for `CC[C@@H]1CN(Cc2cc([C@@H](CC(=O)O)c3cc(Cl)c4c(nnn4C)c3C)cc3c2CCC3)S(=O)(=O)c2cc(Cl)cnc2O1` [Example 97, (3R)-3-(7-Chloro-1,4-dimethyl-1H-benzotriazol-5-yl)-3-(7-{[(4R)-8-chloro-4-ethyl-1,1-dioxido-3,4-dihydro-2H-pyrido[2,3-b][1,4,5]oxathiazepin-2-yl]methyl}-2,3-dihydro-1H-inden-5-yl)propanoic acid] here?
Answer: Its value is “A (5<NQO1 activity ratio)”.

Same assay, conditions: Mus musculus, Hepa-1c1c7, 400 nM of test compound, about 48 hr, ratio from the base without the compound

Question: Which fold induction at 0.4 µM does the source give for `CC[C@@H]1CN(Cc2cc(C(CC(=O)O)c3ccc4c(nnn4C)c3C)cc3c2CCC3)S(=O)(=O)c2ccc(Cl)cc2O1` (stereo partly drawn) [Example 15, 3-(7-{[(4R)-7-Chloro-4-ethyl-1,1-dioxido-3,4-dihydro-2H-5,1,2-benzoxathiazepin-2-yl]methyl}-2,3-dihydro-1H-inden-5-yl)-3-(1,4-dimethyl-1H-benzotriazol-5-yl)propanoic acid] here?
Answer: The fold induction at 0.4 µM was over 5.

Question: For `Cc1c(C(CC(=O)O)c2cc3c(c(CN4CC5(CCOCC5)Oc5ncccc5S4(=O)=O)c2)CCC3)ccc2c1nnn2C` (centres unmarked) [Example 33, 3-(1,4-Dimethyl-1H-benzotriazol-5-yl)-3-{7-[(1′,1′-dioxido-2,3,5,6-tetrahydrospiro[pyran-4,4′-pyrido[2,3-b][1,4,5]oxathiazepine]-2′ (3′H)-yl)methyl]-2,3-dihydro-1H-inden-5-yl}propanoic acid], which fold induction at 0.4 µM is on record?
Answer: Its fold induction at 0.4 µM is over 5.

Question: With `Cc1c(C(CC(=O)O)c2cc3c(c(CN4CC5(CCC5)Oc5ncccc5S4(=O)=O)c2)CCC3)ccc2c1nnn2C` (centres unmarked) [Example 35, 3-(1,4-Dimethyl-1H-benzotriazol-5-yl)-3-{7-[(1′,1′-dioxido-spiro[cyclobutane-1,4′-pyrido[2,3-b][1,4,5]oxathiazepine]-2′(3′H)-yl)methyl]-2,3-dihydro-1H-inden-5-yl}propanoic acid] as the compound, how does the fold induction at 0.4 µM read?
Answer: Its fold induction at 0.4 µM is over 5.

Question: For `Cc1c(C(CC(=O)O)c2cc3c(c(CN4CC5(COC5)Oc5ncccc5S4(=O)=O)c2)CCC3)ccc2c1nnn2C` (centres unmarked) [Example 36, 3-(1,4-Dimethyl-1H-benzotriazol-5-yl)-3-{7-[(1′,1′-dioxido-spiro[oxetane-3,4′-pyrido[2,3-b][1,4,5]oxathiazepine]-2′ (3′H)-yl)methyl]-2,3-dihydro-1H-inden-5-yl}propanoic acid], which fold induction at 0.4 µM is on record?
Answer: Its fold induction at 0.4 µM is over 5.

Source: US20250282724A1, “BENZOTRIAZOLE COMPOUND” (DAIICHI SANKYO COMPANY, LIMITED, priority 2022, published 2025)
